Where a SMILES comes first, the peptide text is derived from it. [ ]: non-standard residue; d: D form. The star is where a group is joined. Nle = CCCC[C@H](N)C(=O)O; Cbz = O=C(OCc1ccccc1)*
Experiments:
[1] = tested on: human Jurkat T cells overexpressing Bcl-2 and human prostate, breast, tongue and brain tumor cell lines; conditions: cited from earlier work; for apoptosis induction / cell kill: low concentrations, same conditions for etoposide
[2] = tested on: simian virus 40-transformed and parental normal human fibroblasts; conditions: but not the parental normal; cited from earlier work
Bax degradation activity = experiment: cell-free Bax degradation assay, inhibitor added to MCF-7 cell extract; type: biochemical, human; conditions: 10-minute preincubation of MCF-7 cell extract with inhibitor (100 mM per FIG. 9C legend), 37° C., 4 h
Description: (§1) FIGS. 9A-9F show Bax degradation depends on ubiquitination, proteasome and ATP. (FIG. 9A) Jurkat cells (0 h) were treated with either 50 μM LLnV or 10 μM lactacystin, followed by preparation of Bax immunoprecipitates (with clone 6A7), which were immunoblotted with an ubiquitin antibody. Positions of putative ubiquitinated Bax proteins (p47, p55) are indicated at left. The nature of the ˜30 kDa and ˜84 kDa remains unclear. (FIG. 9B) The [^35S]-labeled Bax (upper) or Bcl-2 (lower) protein (1 μl) were incubated at 37° C. for 2 h with either buffer Z only (lane 1) or […] protein extract of MCF-7 cells grown exponentially (lane 2) or pretreated for 8 h with […] LLnV (lane 3). (FIG. 9C) The [^35S]-labeled Bax protein (1 μl) was incubated with either buffer Z only (lane 1) or 100 μg MCF-7 cell lysate at 37° C. for 4 h, in the presence of an indicated inhibitor (100 mM; lanes 3-8) or an equal volume of DMSO (lane 2) in buffer Z. A weak band of ˜16 kDa (indicated by an arrow) is probably an intermediate product of proteasome-mediated Bax degradation. (FIG. 9D) The proteasome in MCF-7 whole cell lysate (W lys, lane 1) was precipitated by using either ultraspin (ULS) or a proteasome subunit a6 antibody (IP). Both supernatant (lanes 2, 4) and pellet (lanes 3, 5) fractions were examined by Western blot assay using antibody to the proteasome a6 subunit (MW 33 kDa). (FIG. 9E) Bax degradation assay was performed as in FIG. 9B, with addition of buffer Z (lane 1) or 100 μg protein from MCF-7 whole cell lysate (lane 2), ultraspun supernatant (lane 3) or plus the pellet (lane 4), immunodepleted supernatant (lane 5) or plus a purified 20S proteasome ([…]; lane 6), or the purified proteasome alone (2 μg; lane 7). (FIG. 9F) Bax degradation assay was performed as in FIG. 9B, in the absence (lane 3) or presence of 10 mM ATP (lane 2) or 10 mM ATP-y-S (lane 4).
In vitro Bax Degradation Assay: Human Bax-a cDNA subcloned into pcDNA3 was a gift from Dr. Hong-gang Wang. Human full length of bcl-2-a cDNA was cloned from Jurkat T cells and subcloned into pcDNA3.1(−) as described+. Both bax and bcl-2 plasmids were used for coupled in vitro transcription/translation (Promega; Madison, Wis.) in the presence of [^35S]methionine (Amersham Pharmacia Biotech; Piscataway, N.J.). Protein extracts were prepared from either MCF-7 cells or prostate tumor tissues in buffer Y (50 mM Tris-HCl, pH 7.4, 250 mM NaCl, 1% Triton X-100, 0.1% SDS, 1 mM EDTA), and used for Bax (or Bcl-2) degradation assay. Briefly, 1 microl of [^35S]-labeled Bax (or Bcl-2) protein was incubated at 37° C. for 2-4 hours with 100-200 microg protein extract in buffer Z (50 mM Tris-HCl, pH 7.4, 5 mM MgCl2, 3 mM DTT, 10 mM ATP, 10 mM phosphocreatine, 10 microg/ml creatine phosphokinase, 10 microg/ml aprotinin, 10 microg/ml leupeptin, 10% glycerol and 2 microg/ml ubiquitin). After incubation, the samples were subjected to gel electrophoresis and autoradiography. Under the cell-free assay conditions, the calpain-mediated Bax cleavage activity was blocked by omission of calcium and addition of the protease inhibitor leupeptin (Wood et al, 1998). To deplete the proteasome, MCF-7 cell lysates were either immunoprecipitated with the 20S proteasome subunit a6 antibody or ultracentrifugated at 100,000×g for 6 hours. The proteasome-enriched pellet fraction was resuspended in buffer Y.
To further study the proteasome activity that degrades Bax protein, a cell-free Bax degradation assay was developed by using an in vitro-translated, [^35S]-labeled Bax protein as substrate (FIG. 9B, upper, lane 1). The Bax degradation activity is present in protein extracts prepared from exponentially growing MCF-7 (FIG. 9), K562, VA-13, WI-38, Jurkat T or HL-60 cells. The labeled Bax was almost completely degraded by a MCF-7 cell extract after 2 to 4 hours incubation at 37° C. (FIG. 9B, upper, and FIG. 9C, lanes 2 vs. 1). […]

Jurkat T cells = experiment: Western blot and Bax IP/ubiquitin blot in Jurkat T cells; type: cell-based, human; conditions: 50 microM
Description: FIGS. 8A-8D show proteasome inhibition accumulates Bax to mitochondria/cytoplasm and increases interaction between Bax and Bcl-2 proteins. Jurkat cells (0 h; FIG. 8A and FIG. 8B) or Jurkat cells overexpressing Bcl-2 (0 h; FIG. 8C and FIG. 8D) were treated by either 10 μM lactacystin (FIGS. 8A-8C), 50 μM LLnV (FIG. 8D), or 50 μM LLM (FIG. 8A and FIG. 8B) for the indicated hours. (FIG. 8A and FIG. 8B) Western blotting with antibodies to PARP and Bax were performed as described in FIG. 7. (FIG. 8C) Immunohistochemistry (see MATERIALS AND METHODS). Localization of Bax protein (green) and nuclei (red) are shown. (FIG. 8D) Bax immunoprecipitates, prepared by an agarose-conjugated N-20 Bax antibody, were immunoblotted first with the 6A7 Bax antibody (upper) and then reblotted with a Bcl-2 antibody (lower).
as §1, with “4). […]” for “4).”

normal WI-38 cells = experiment: PARP cleavage, cytochrome c release, Bax and p21 in normal fibroblasts; type: cell-based, human; conditions: LLnL at up to 200 microM, 14 hours
Source text: Proteasome inhibitors activate Bax- and cytochrome c-dependent apoptosis pathway preferentially in transformed human fibroblasts. Normal human fibroblasts are more resistant to proteasome inhibitor-induced apoptosis than transformed and cancer cells (An et al., in press). This is probably due to inability of the normal cells to accumulate Bax protein in response to proteasome inhibition, and consequently failure to release cytochrome c. To test this hypothesis, both SV40-transformed and normal WI-38 cells were treated with 50 microM LLnV for up to 24 hours, followed by measurement of PARP cleavage, cytochrome c release and Bax accumulation. […] In contrast, only after 24 hours treatment, low levels of p85/PARP fragment and cytosolic cytochrome c were detected in normal WI-38 cells (FIGS. 1, A, B, lanes 8-14). […] The levels of Bax/p21 were increased at as early as 4 hours and remained high afterwards. […] The level of another band of ˜47 kDa increased at 4 hours, further increased between 6 and 12 hours, and then decreased (FIG. 1C). The p70 and p47 bands can contain ubiquitinated forms of Bax since similar polypeptides were detected by antibodies to both Bax and ubiquitin (Li et al., 1999). […] Therefore, although unable to activate the Bax- and cytochrome c-dependent apoptotic pathway in response to a low concentration of a proteasome inhibitor, normal cells are capable of undergoing Bax- and cytochrome c-independent apoptosis in response to a proteasome inhibitor at higher concentrations.
SV40-transformed (VA-13) and normal WI-38 cells were treated with 50 microM LLnV or DMSO (letter D) for up to 24 hours, followed by measurement of PARP cleavage (A), cytochrome c release (B) and Bax accumulation (C; also see FIG. 2). Panel D, exponentially grown VA-13 cells were pretreated with 50 microM LLnV or DMSO for 1 hour, washed with methionine-free medium, and then incubated for 30 minutes in methionine-free medium plus 50 microM LLnV (or DMSO). This was followed by replacing fresh methionine-free medium containing 150 microCi/ml of [^35S]-methionine, 10% dialyzed FBS and 50 microM LLnV (or DMSO). Cells were further incubated for 6 hours, followed by preparation of [^35S]-labeled protein lysates and Bax immunoprecipitates (6A7, PharMingen). The labeled Bax bands are indicated. […] Bax-alpha subcloned into pcDNA3 was used for coupled in vitro transcription/translation in the presence of [^35S]methionine. For Bax cleavage assay, the whole cell extracts were prepared. The [^35S]-labeled Bax (0.7 microl) was incubated with 50 microg protein in assay buffer (containing 50 microM LLM and no Ca^2+) for 4 hours at 37° C. Following incubation, the samples were subjected to SDS gel electrophoresis and autoradiography.

Row | Molecule | Bax degradation process/activity (Bax degradation activity) | other results
1 | CC(C)C[C@@H](C=O)NC(=O)[C@H](CCCN=C(N)N[N+](=O)[O-])NC(=O)C(CCCCCCCCN1C(=O)c2ccccc2C1=O)C1CCCC1 (some centres unmarked) [CEP1612] | – | cyclin-dependent kinase inhibitors p21 and p27 ([1]; associated with CEP1612-induced apoptosis): accumulation of the cyclin-dependent kinase inhibitors p21 and p27; apoptosis induction / cell kill [1]: rapidly induces apoptosis; p27 accumulation and apoptosis [2]: selectively accumulates p27 and induces apoptosis
2 | CC(C)C[C@@H](C=O)NC(=O)[C@H](CC(C)C)NC(=O)[C@H](CC(C)C)NC(=O)OCc1ccccc1 [LLL] (Cbz-Leu-Leu-Leu-aldehyde) | blocked | –
3 | CSCCC(C=O)NC(=O)C(CC(C)C)NC(=O)C(CC(C)C)NC(C)=O (stereo not drawn) [LLM] (Ac-Leu-Leu-Met-aldehyde; configuration not given here) | not | Bax accumulation and PARP cleavage (Jurkat T cells): had no such effects
4 | CCCC[C@@H](C=O)NC(=O)[C@H](CC(C)C)NC(=O)[C@H](CC(C)C)NC(C)=O [LLnL] (Ac-Leu-Leu-[Nle]-aldehyde) | blocked | apoptosis as judged by PARP cleavage (normal WI-38 cells): underwent apoptosis; cytochrome c release and Bax accumulation (normal WI-38 cells): neither release cytochrome c nor accumulate Bax; levels of the cdk inhibitor p21 (normal WI-38 cells): significantly increased
5 | CCN1C(=O)C=CC1=O [N-ethylmaleimide] | not inhibited | –
6 | CC(=O)N[C@@H](CC(=O)O)C(=O)N[C@@H](CCC(=O)O)C(=O)N[C@H](C(=O)N[C@@H](CC(=O)O)C(=O)CF)C(C)C [acetyl-DEVD-fluoromethyl ketone] | not inhibited | –
7 | CC(=O)N[C@@H](Cc1ccc(O)cc1)C(=O)N[C@H](C(=O)N[C@@H](C)C(=O)N[C@@H](CC(=O)O)C(=O)CCl)C(C)C [acetyl-YVAD-chloromethyl ketone] | not inhibited | –
8 | CC(C)[C@H](O)[C@@]12NC(=O)[C@H](C)[C@@H]1OC2=O [b-lactone, clasto-lactacyctin b-lactone] | blocked | –
9 | N=C(N)c1ccccc1 [benzamidine] | not inhibited | –
10 | COc1cc([C@@H]2c3cc4c(cc3[C@@H](O[C@@H]3O[C@@H]5CO[C@@H](C)O[C@H]5[C@H](O)[C@H]3O)[C@H]3COC(=O)[C@H]23)OCO4)cc(OC)c1O [etoposide] | – | apoptosis induction / cell kill [1]: fails to kill these cells
11 | CC(=O)N[C@@H](CC(C)C)C(=O)N[C@@H](CC(C)C)C(=O)N[C@H](C=O)CCCNC(=N)N [leupeptin] | not inhibited | –
12 | O=S(=O)(F)Cc1ccccc1 [phenylmethylsulfonyl fluoride] | not inhibited | –
13 | aprotinin | not inhibited | –
14 | tosyl-L-lysine chloromethyl ketone | not inhibited | –
